{"source": "patent US6420374B1", "about": "“Use of xanthines as immunosuppressants and to inhibit allograft reactions” (Fred Hutchinson Cancer Research Center, priority 1990, dated 2002)", "key": {"[1]": {"test_system": "bidirectional MLR of blood mononuclear cells", "test": "Bidirectional mixed leukocyte reaction (MLR), tritiated thymidine (3Htdr) uptake", "format": "cell-based, human", "conditions": "for inhibition of 3Htdr uptake: blood mononuclear cells with PHA and in bidirectional MLR's, after 6 days in culture, concentration dependent; for T cell activation and proliferation: both by direct stimulation with PHA and in an MLR; for lowest concentration with significant suppression of 3Htdr uptake / most effective concentration (highest concentration tested): PHA / MLR cultures; for suppressing lymphocyte activation evidenced by MLR: in vitro", "excerpt": "More particularly, co-cultivation of leukocytes from unrelated individuals leads to blast transformation and proliferation similar to that observed upon addition of mitogens to T-cells. The basis of this reaction appears to be the activation of T-cells from one individual by cell surface markers of another. Co-culturing of blood leukocytes from two individuals is referred to as “mixed leukocyte culture” or “MLC” and the reaction as “mixed leukocyte reaction” or “MLR”. Co-culturing of cells obtained from lymphoid organs is designated “mixed lymphocyte culture” or “mixed lymphocyte reaction”. Since even in the mixed leukocyte reaction, the participating cells are peripheral blood T lymphocytes, there is generally substantially no difference between the two types of culture. Thus, these expressions are used interchangeably herein.\nMLR can be carried out using conventional techniques. Cultured cells for the MLR can be derived from peripheral blood, spleen, lymph nodes, or thymus. Cell number can vary by several orders of magnitude. The stimulating cells can be inactivated by irradiation or treatment with an antibiotic to disrupt DNA replication. The culture medium can be supplemented, if necessary, by serum proteins of autologous, syngeneic, allogeneic, or xenogeneic origin. Cultivation can be carried out over a period of several days. The degree of stimulation of responder cells by stimulating cells can be determined from the uptake rate of ^3H-thymidine or radiolabeled amino acids or by counting blasts and dividing cells. If a radiolabel is employed, it can be added to the culture several hours before harvesting.\nWhen blood mononuclear cells from two unrelated individuals are cultured together, mutual stimulation occurs resulting in T cell activation and blastogenesis and ultimately in the generation of cytotoxic T cells and memory cells. This complex series of events, termed the mixed leukocyte reaction (MLR), requires genetic disparaties at the HLA-DR locus. Monocytic cells are needed for antigen processing and presentation. The MLR is thus measures lymphocyte recognition and response to non-self-antigens and serves as an in vitro representation of some of the cellular events associated with graft-versus-host disease (GVHD) and allograft rejection.\n(§1) Results are the means SD of triplicate wells.\n(§2) All values except those for M1 represent: the means of calculated results from 6 to 8 independent experiments. The M1 results are the average of 2 independent experiments."}, "TNF mRNA": {"test_system": "TNF mRNA", "test": "TNF mRNA level in whole cellular RNA extracted from an MLR", "format": "cell-based, human", "conditions": "MLR containing the compound", "excerpt": "There was no decrease in cell viability in the test cultures as assessed by trypan blue dye exclusion (cell viability >95% in all groups). When whole cellular RNA was extracted from an MLR, there was some upregulation of […] compared to cultures of the mononuclear cells cultured individually. However, basal levels of TNF mRNA were readily detectable, possibly due to some activation during the culture period. This was also reflected by significant levels of ^3Htdr uptake."}, "[2]": {"test_system": "T cell activation antigens (HLA-DR, transferrin receptor, IL-2 receptor, CD69; CD2)", "test": "Expression of T cell activation antigens by direct immunofluorescence after 6 days in a bidirectional MLR", "format": "cell-based, human", "conditions": "for expression of CD69 / expression of HLA-DR / expression of the IL-2 receptor / expression of the transferrin receptor: to near the levels of mononuclear cells from a single donor", "method": "The following fluorescein isothyoc:yanate (FITC) or phycoerythrin (PE) conjugated antibodies were used: IgGl and IgG2a isotype controls, anti-HLe-1 (CD45), anti-LeuM3 (CD14). anti-Leu4(cd3), anti-IL2-receptor (CD25), anti-transferrin receptor (CD71), anti-HLA-DR, and anti-Leu23 (CD69). (All antibodies were from Becton-Dickinson, San Jose, Calif.) Staining was performed using Manufacturer's recommendations ([…] antibody/10^6 cells in 0.1 ml of phosphate buffered saline for 20′ at room temperature). The cells were washed twice, resuspended and analyzed on a Becton-Dickinson FACSan flow cytometer operating under Consort 30 software. The lymphocyte analysis gate was determined on the basis of forward scatter and side scatter and confirmed by examination of two-color immunofluorescence display for CD4S and CD14. Data are presented as the percentage of cells with fluorescence greater than that of the appropriate isotype control.\nDuring T cell activation, there is increased expression of certain cell surface determinants which can serve as markers of activation."}, "[3]": {"conditions": "cited from earlier work; for rank among the metabolites of pentoxifylline: in vivo"}, "[4]": {"test_system": "PHA-stimulated mononuclear cells", "test": "PHA-stimulated blood mononuclear cells, tritiated thymidine (3Htdr) uptake", "format": "cell-based, human", "conditions": "rhTNF 200 U/ml added at inception of culture", "excerpt": "as §1, §2"}, "TNF": {"test_system": "TNF", "test": "Release of TNF into the culture medium", "format": "cell-based, human"}, "TNF mRNA in U937 cells": {"test_system": "TNF mRNA in U937 cells", "conditions": "cited from earlier work"}, "[5]": {"conditions": "human urine, Metabolites II and III together"}}, "note": "“Also recorded” adds a separate entry of the source. Read-outs that look alike come from different tables or passages of the source.", "data": [{"smiles": "CCOCn1cnc2c1c(=O)n(CCCCC(C)(C)O)c(=O)n2C", "note": "[Compound 1, 7-ethoxymethyl-1-(5-hydroxy-5-methylhexyl)-3-methylxanthine]", "values": [{"measurement": "inhibition of 3Htdr uptake", "setting": "[1]", "result": "actively inhibited"}, {"measurement": "T cell activation and proliferation", "setting": "[1]", "result": "suppressed"}, {"measurement": "level of TNF mRNA", "setting": "TNF mRNA", "result": "significantly decreased"}, {"measurement": "expression of CD2 (non-activation dependent pan-T antigen)", "setting": "[2]", "result": "no differences"}, {"measurement": "expression of CD69", "setting": "[2]", "result": "decreased"}, {"measurement": "expression of HLA-DR", "setting": "[2]", "result": "decreased"}, {"measurement": "expression of the IL-2 receptor", "setting": "[2]", "result": "decreased"}, {"measurement": "expression of the transferrin receptor", "setting": "[2]", "result": "decreased"}]}, {"smiles": "CC(O)CCCCn1c(=O)c2c(ncn2C)n(C)c1=O", "note": "(centres unmarked) [Compound M1, 1-(5-hydroxyhexyl)-3,7-dimethylxanthine]", "values": [{"measurement": "lowest concentration with significant suppression of 3Htdr uptake", "setting": "[1]", "result": 0.01, "unit": "mM"}, {"measurement": "most effective concentration (highest concentration tested)", "setting": "[1]", "result": 1, "unit": "mM"}, {"measurement": "inhibition of 3Htdr uptake", "setting": "[1]", "result": "actively inhibited"}, {"measurement": "T cell activation and proliferation", "setting": "[1]", "result": "suppressed"}, {"measurement": "amount found in urine", "setting": "[3]; human urine", "result": "Only traces"}, {"measurement": "rank among the metabolites of pentoxifylline", "setting": "[3]", "result": "major metabolites"}]}, {"smiles": "CCCCn1c(=O)c2c(ncn2CC(C)=O)n(CCCC)c1=O", "note": "[Denbufylline, 7-acetonyl-1,3-dibutyl-xanthine]", "values": [{"measurement": "suppressing lymphocyte activation evidenced by MLR", "setting": "[1]", "result": "not effective"}, {"measurement": "suppressing lymphocyte activation evidenced by MLR", "setting": "[1]; listed as compound (III)", "result": "has not been demonstrated"}]}, {"smiles": "Cn1cnc2c1c(=O)n(CCCCC(O)CO)c(=O)n2C", "note": "(centres unmarked) [Metabolite II, 1-(5,6-dihydroxyhexyl)-3,7-dimethylxanthine]", "values": [{"measurement": "share of the excretion products", "setting": "[3]; [5]", "result": "approximately 12%"}]}, {"smiles": "CC(O)C(O)CCCn1c(=O)c2c(ncn2C)n(C)c1=O", "note": "(centres unmarked) [Metabolite III, 1-(4,5-dihydroxyhexyl)-3,7-dimethylxanthine]", "values": [{"measurement": "share of the excretion products", "setting": "[3]; [5]", "result": "approximately 12%"}]}, {"smiles": "Cn1cnc2c1c(=O)n(CCCCC(=O)O)c(=O)n2C", "note": "[Metabolite IV, 1-(4-carboxybutyl)-3,7-dimethylxanthine]", "values": [{"measurement": "share of the excretion products", "setting": "[3]; human urine", "result": "about 8%"}]}, {"smiles": "Cn1cnc2c1c(=O)n(CCCC(=O)O)c(=O)n2C", "note": "[Metabolite V, 1-(3-carboxypropyl)-3,7-dimethylxanthine]", "values": [{"measurement": "share of the administered dose in urine", "setting": "[3]; human urine, main urinary metabolite", "result": "50-60%"}, {"measurement": "rank among the metabolites of pentoxifylline", "setting": "[3]", "result": "major metabolites"}]}, {"smiles": "CC(=O)CCCCn1c(=O)c2c(ncn2C)n(C)c1=O", "note": "[PTX, 1-(5-oxohexyl)-3,7-dimethylxanthine]", "values": [{"measurement": "diminution in response to PHA after addition of recombinant human TNF", "setting": "[4]", "result": "not abrogated"}, {"measurement": "lowest concentration with significant suppression of 3Htdr uptake", "setting": "[1]", "result": 0.01, "unit": "mM"}, {"measurement": "most effective concentration (highest concentration tested)", "setting": "[1]", "result": 1, "unit": "mM"}, {"measurement": "inhibition of 3Htdr uptake", "setting": "[1]", "result": "actively inhibited"}, {"measurement": "T cell activation and proliferation", "setting": "[1]", "result": "suppressed"}, {"measurement": "diminution (suppression) of the MLR after addition of recombinant human TNF", "setting": "[1]; rhTNF 200 U/ml added at inception of culture", "result": "not abrogated; also recorded: not reversed"}, {"measurement": "level of TNF mRNA", "setting": "TNF mRNA", "result": "significantly decreased"}, {"measurement": "expression of CD2 (non-activation dependent pan-T antigen)", "setting": "[2]", "result": "no differences"}, {"measurement": "expression of CD69", "setting": "[2]", "result": "decreased"}, {"measurement": "expression of HLA-DR", "setting": "[2]", "result": "decreased"}, {"measurement": "expression of the IL-2 receptor", "setting": "[2]", "result": "decreased"}, {"measurement": "expression of the transferrin receptor", "setting": "[2]", "result": "decreased"}, {"measurement": "release of the cytokine (TNF) into the culture medium", "setting": "TNF", "result": "decreased"}, {"measurement": "endotoxin induced upregulation of TNF mRNA", "setting": "TNF mRNA in U937 cells", "result": "can prevent"}]}]}
